How the values were obtained:
human IgG = human IgG (Homo sapiens, UniProt P01857); experiment: SPR affinity analysis of IgG-binding peptides on immobilized IgG (BIAcore T200); design: kd: unit not given here; conditions: for ka / kd: SPR, peptides N-terminally blocked with biotinylated PEG4, NHS group hydrolysed
Method: 0.4 M EDC (1-ethyl-3-(3-dimethylaminopropyl)-carbodiimide) and 0.1 M sulfo-NHS (sulfo-N-hydroxysuccinimide) were mixed in equal amounts and then injected onto a CMS sensor chip loaded in BIAcore T200 (GE Healthcare Japan Corp.) for 7 minutes at a flow rate of […] to activate the sensor chip. IgG was immobilized thereonto in an amount of 4000 to 5000 in terms of RU value under conditions of pH 4.0 (10 mM sodium acetate). While a HBS-EP buffer solution (0.01 M HEPES, 0.15 M NaCl, 0.005% Tween 20, and 3 mM EDTA, pH 7.0) was used, binding reaction was monitored by the injection of the peptide at a concentration of 10 nM to 2 μM for 180 seconds at a flow rate of […]. Then, dissociation reaction was assayed by washing with a buffer solution for 600 seconds. Binding parameters were analyzed using BIAevalution T100 software.

hIgG = target: T1, hIgG (Homo sapiens, UniProt P01857); experiment: ELISA of biotinylated IgG-binding peptide on plate-adsorbed hIgG; conditions: peptide unmodified with cross-linking agent
T1 construct: purchased Chugai Pharmaceutical Co., Ltd
T1 sequence (P01857 1-328): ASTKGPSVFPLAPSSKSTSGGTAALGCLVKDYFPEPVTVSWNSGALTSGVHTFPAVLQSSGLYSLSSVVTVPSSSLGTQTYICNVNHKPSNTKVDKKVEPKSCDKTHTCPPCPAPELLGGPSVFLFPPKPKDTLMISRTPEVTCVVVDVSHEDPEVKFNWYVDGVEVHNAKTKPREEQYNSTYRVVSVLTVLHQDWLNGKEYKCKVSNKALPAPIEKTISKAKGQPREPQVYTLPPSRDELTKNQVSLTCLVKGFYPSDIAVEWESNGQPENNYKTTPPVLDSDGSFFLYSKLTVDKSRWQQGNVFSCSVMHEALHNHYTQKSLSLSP
Method: A 0.1 M NaHCO3 solution containing each protein (IgG (Chugai Pharmaceutical Co., Ltd.), IgA (Athens Research & Technology, Inc.), or bovine gelatin (Wako Pure Chemical Industries, Ltd.)) (50 ng (0.33 pmol)/μ1/well) was added to wells of a 96-well microplate (Nunc® MaxiSorp), and the plate was left overnight at room temperature to adsorb each protein onto the surface of the plate. After blocking with 0.5% BSA, a biotinylated IgG-binding peptide modified with DSG (molar ratio: 0, 1, 2, 5, or 10), prepared in the same way as in Example 2 was added to each well. After 1 hour, the reaction was terminated by the addition of 1 M Tris-HCl (pH 7.0) at 3 μL/well. SA-HRP (Vector Laboratories, Inc.) diluted 2000-fold with 0.5% BSA was added thereto at 50 μL/well and reacted at room temperature for 1 hour. Then, the plate was washed five times with 0.1% PBST. Then, a TMB solution (Wako Pure Chemical Industries, Ltd.) was used in the color development of HRP. After 5-minute chromogenic reaction, the absorbance at 450 nm was measured using an ELISA plate reader (model 680 microplate reader (Bio-Rad Laboratories, Inc.)).
The biotinylated IgG-binding peptide modified with DSG was added at a molar ratio of 2 to hIgG (50 ng) immobilized overnight at 4° C. with a 50 ng/50 μL solution. […] The binding was detected in the same way as in (A).

Chain of human IgG (P01857 1-328): as above

Substance | ka (human IgG) | kd (human IgG) | decrease of affinity for human IgG as compared with Type I (human IgG; R8K substitution versus peptide before substitution) [times] | binding to hIgG (ELISA) (hIgG)
GDDCAYHK(DSG-OH)GELVWCTFH-NH2 [Type I(R8K)-DSG-OH] | 3.29E+05 | 0.1036 | – | –
GDDCAYHK(DSS-OH)GELVWCTFH-NH2 [Type I(R8K)-DSS-OH] | 1.68E+05 | 0.06136 | – | –
GDDCAYHKGELVWCTFH-NH2 [Type I(R8K)] | 1.25E+06 | 0.195 | 10 | Very weak binding
GPDCAYHRGELVWCTFH-NH2 [Type I] | 1.57E+06 | 0.0144 | – | –

Source: US12037417B2, “Site-specific radioisotope-labeled antibody using IgG-binding peptide” (Kagoshima University, priority 2016, dated 2024)
